Target: T1, human PAH with the R408W mutation (A375 R408W cells) (Homo sapiens, UniProt P00439, R408W)
T1 construct: expressed in transfected cells
T1 sequence (P00439 1-452 R408W): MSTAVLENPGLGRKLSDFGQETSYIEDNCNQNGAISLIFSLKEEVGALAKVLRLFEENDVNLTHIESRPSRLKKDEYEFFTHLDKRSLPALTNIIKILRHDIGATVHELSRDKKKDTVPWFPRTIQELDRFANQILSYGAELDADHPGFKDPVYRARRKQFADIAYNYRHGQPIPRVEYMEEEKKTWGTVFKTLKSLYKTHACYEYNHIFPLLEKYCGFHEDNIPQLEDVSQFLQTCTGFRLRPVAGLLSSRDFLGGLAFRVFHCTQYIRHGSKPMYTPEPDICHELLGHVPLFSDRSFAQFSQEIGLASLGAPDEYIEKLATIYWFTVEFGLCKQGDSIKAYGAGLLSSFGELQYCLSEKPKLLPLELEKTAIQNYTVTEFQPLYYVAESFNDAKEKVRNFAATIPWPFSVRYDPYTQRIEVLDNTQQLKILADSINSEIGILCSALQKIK
Experiment: Cell Based Phenylalanine Flux Assay
Conditions: A375 R408W cells; 24 hrs with compound, then 20 μM sepiapterin and 800 μM 13C9,15N-Phenylalanine for 4 hours; 13C-Tyrosine by LC-MS; average where tested multiple times
Method in brief: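 Stable R408W PAH A375 cells: 24 h compound pretreatment in duplicate, then 4 h with 800 μM isotope-labelled Phe and 20 μM sepiapterin. Labelled Tyr output by LC-MS; AC50 averaged where repeated.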

Structure (SMILES) | AC50 [nM]
Cn1cc(-c2nc(C(F)F)c(C(=O)N3CCc4[nH]cnc4[C@H]3c3nc4ccccc4o3)o2)cn1 [Example 760, (S)-(4-(benzo[d]oxazol-2-yl)-6,7-dihydro-1H-imidazo[4,5-c]pyridin-5(4H)-yl)(4-(difluoromethyl)-2-(1-methyl-1H-pyrazol-4-yl)oxazol-5-yl)methanone] | ≤ 500
Cn1ccc(-c2nc(C(F)F)c(C(=O)N3CCc4[nH]cnc4[C@H]3c3nc4ccccc4o3)o2)n1 [Example 761, (S)-(4-(benzo[d]oxazol-2-yl)-6,7-dihydro-1H-imidazo[4,5-c]pyridin-5(4H)-yl)(4-(difluoromethyl)-2-(1-methyl-1H-pyrazol-3-yl)oxazol-5-yl)methanone] | ≤ 500
Cn1ccc(-c2nc(C(F)F)c(C(=O)N3CCc4[nH]cnc4[C@@H]3c3nc4ccccc4o3)o2)n1 [Example 762, (R)-(4-(benzo[d]oxazol-2-yl)-6,7-dihydro-1H-imidazo[4,5-c]pyridin-5(4H)-yl)(4-(difluoromethyl)-2-(1-methyl-1H-pyrazol-3-yl)oxazol-5-yl)methanone] | 1000 to 5000
Cn1cncc1-c1nc(C(F)F)c(C(=O)N2CCc3[nH]cnc3[C@@H]2c2nc3ccccc3o2)o1 [Example 763, (R)-(4-(benzo[d]oxazol-2-yl)-6,7-dihydro-1H-imidazo[4,5-c]pyridin-5(4H)-yl)(4-(difluoromethyl)-2-(1-methyl-1H-imidazol-5-yl)oxazol-5-yl)methanone] | 1000 to 5000
Cn1cncc1-c1nc(C(F)F)c(C(=O)N2CCc3[nH]cnc3[C@H]2c2nc3ccccc3o2)o1 [Example 764, (S)-(4-(benzo[d]oxazol-2-yl)-6,7-dihydro-1H-imidazo[4,5-c]pyridin-5(4H)-yl)(4-(difluoromethyl)-2-(1-methyl-1H-imidazol-5-yl)oxazol-5-yl)methanone] | ≤ 500
COc1cccc2nc([C@@H]3c4nc[nH]c4CCN3C(=O)c3ccnn3C(C)C)oc12 [Example 765, (S)-(1-isopropyl-1H-pyrazol-5-yl)(4-(7-methoxybenzo[d]oxazol-2-yl)-6,7-dihydro-1H-imidazo[4,5-c]pyridin-5(4H)-yl)methanone] | ≤ 500
COc1cccc2nc([C@@H]3c4nc[nH]c4CCN3C(=O)c3ccnn3C3CC3)oc12 [Example 767, (S)-(1-cyclopropyl-1H-pyrazol-5-yl)(4-(7-methoxybenzo[d]oxazol-2-yl)-6,7-dihydro-1H-imidazo[4,5-c]pyridin-5(4H)-yl)methanone] | ≤ 500
Cc1cc(C(=O)N2CCc3[nH]cnc3[C@H]2c2nc3cccc(F)c3o2)n(C)n1 [Example 769, (S)-(1,3-dimethyl-1H-pyrazol-5-yl)(4-(7-fluorobenzo[d]oxazol-2-yl)-6,7-dihydro-1H-imidazo[4,5-c]pyridin-5(4H)-yl)methanone] | 1000 to 5000
Cc1cc(C(=O)N2CCc3[nH]cnc3[C@@H]2c2nc3cccc(F)c3o2)n(C)n1 [Example 770, (R)-(1,3-dimethyl-1H-pyrazol-5-yl)(4-(7-fluorobenzo[d]oxazol-2-yl)-6,7-dihydro-1H-imidazo[4,5-c]pyridin-5(4H)-yl)methanone] | 1000 to 5000
Cc1ccc2oc([C@@H]3c4nc[nH]c4CCN3C(=O)c3oc(-c4cnn(C)c4)nc3C(F)F)nc2c1 [Example 771, (S)-(4-(difluoromethyl)-2-(1-methyl-1H-pyrazol-4-yl)oxazol-5-yl)(4-(5-methylbenzo[d]oxazol-2-yl)-6,7-dihydro-1H-imidazo[4,5-c]pyridin-5(4H)-yl)methanone] | ≤ 500
Cc1ccc2oc([C@H]3c4nc[nH]c4CCN3C(=O)c3oc(-c4cnn(C)c4)nc3C(F)F)nc2c1 [Example 772, (R)-(4-(difluoromethyl)-2-(1-methyl-1H-pyrazol-4-yl)oxazol-5-yl)(4-(5-methylbenzo[d]oxazol-2-yl)-6,7-dihydro-1H-imidazo[4,5-c]pyridin-5(4H)-yl)methanone] | 500 to 1000
O=C(c1oc(-c2ccncn2)nc1C(F)F)N1CCc2[nH]cnc2[C@H]1c1nc2cccc(F)c2o1 [Example 773, (S)-(4-(difluoromethyl)-2-(pyrimidin-4-yl)oxazol-5-yl)(4-(7-fluorobenzo[d]oxazol-2-yl)-6,7-dihydro-1H-imidazo[4,5-c]pyridin-5(4H)-yl)methanone] | ≤ 500
O=C(c1oc(-c2ccncn2)nc1C(F)F)N1CCc2[nH]cnc2[C@@H]1c1nc2cccc(F)c2o1 [Example 774, (R)-(4-(difluoromethyl)-2-(pyrimidin-4-yl)oxazol-5-yl)(4-(7-fluorobenzo[d]oxazol-2-yl)-6,7-dihydro-1H-imidazo[4,5-c]pyridin-5(4H)-yl)methanone] | ≤ 500
COc1cccc2nc([C@@H]3c4nc[nH]c4CCN3C(=O)c3ncnn3C)oc12 [Example 775, (S)-(4-(7-methoxybenzo[d]oxazol-2-yl)-6,7-dihydro-1H-imidazo[4,5-c]pyridin-5(4H)-yl)(1-methyl-1H-1,2,4-triazol-5-yl)methanone] | 500 to 1000
COc1cccc2nc([C@H]3c4nc[nH]c4CCN3C(=O)c3ncnn3C)oc12 [Example 776, (R)-(4-(7-methoxybenzo[d]oxazol-2-yl)-6,7-dihydro-1H-imidazo[4,5-c]pyridin-5(4H)-yl)(1-methyl-1H-1,2,4-triazol-5-yl)methanone] | 1000 to 5000
COc1cccc2nc([C@@H]3c4nc[nH]c4CCN3C(=O)c3cc(C(F)F)nn3C)oc12 [Example 777, (S)-(3-(difluoromethyl)-1-methyl-1H-pyrazol-5-yl)(4-(7-methoxybenzo[d]oxazol-2-yl)-6,7-dihydro-1H-imidazo[4,5-c]pyridin-5(4H)-yl)methanone] | ≤ 500

Next, values leading:

AC50 [nM] | Structure (SMILES)
500 to 1000 | COc1cccc2nc([C@H]3c4nc[nH]c4CCN3C(=O)c3cc(C(F)F)nn3C)oc12 [Example 778, (R)-(3-(difluoromethyl)-1-methyl-1H-pyrazol-5-yl)(4-(7-methoxybenzo[d]oxazol-2-yl)-6,7-dihydro-1H-imidazo[4,5-c]pyridin-5(4H)-yl)methanone]
1000 to 5000 | Cc1cc(C(=O)N2CCc3[nH]cnc3[C@H]2c2nc3ccccc3o2)n(C)n1 [Example 779, (S)-(4-(benzo[d]oxazol-2-yl)-6,7-dihydro-1H-imidazo[4,5-c]pyridin-5(4H)-yl)(1,3-dimethyl-1H-pyrazol-5-yl)methanone]
1000 to 5000 | Cc1cc(C(=O)N2CCc3[nH]cnc3[C@@H]2c2nc3ccccc3o2)n(C)n1 [Example 780, (R)-(4-(benzo[d]oxazol-2-yl)-6,7-dihydro-1H-imidazo[4,5-c]pyridin-5(4H)-yl)(1,3-dimethyl-1H-pyrazol-5-yl)methanone]
≤ 500 | Cc1cc(C(=O)N2CCc3[nH]cnc3[C@H]2c2nc3cccc(C)c3o2)n(C)n1 [Example 781, (S)-(1,3-dimethyl-1H-pyrazol-5-yl)(4-(7-methylbenzo[d]oxazol-2-yl)-6,7-dihydro-1H-imidazo[4,5-c]pyridin-5(4H)-yl)methanone]
500 to 1000 | Cc1cc(C(=O)N2CCc3[nH]cnc3[C@@H]2c2nc3cccc(C)c3o2)n(C)n1 [Example 782, (R)-(1,3-dimethyl-1H-pyrazol-5-yl)(4-(7-methylbenzo[d]oxazol-2-yl)-6,7-dihydro-1H-imidazo[4,5-c]pyridin-5(4H)-yl)methanone]
≤ 500 | Cc1ccc2oc([C@H]3c4nc[nH]c4CCN3C(=O)c3oc(-c4cn(C)cn4)nc3C(F)F)nc2c1 [Example 783, (R)-(4-(difluoromethyl)-2-(1-methyl-1H-imidazol-4-yl)oxazol-5-yl)(4-(5-methylbenzo[d]oxazol-2-yl)-6,7-dihydro-1H-imidazo[4,5-c]pyridin-5(4H)-yl)methanone]
≤ 500 | Cc1ccc2oc([C@@H]3c4nc[nH]c4CCN3C(=O)c3oc(-c4cn(C)cn4)nc3C(F)F)nc2c1 [Example 784, (S)-(4-(difluoromethyl)-2-(1-methyl-1H-imidazol-4-yl)oxazol-5-yl)(4-(5-methylbenzo[d]oxazol-2-yl)-6,7-dihydro-1H-imidazo[4,5-c]pyridin-5(4H)-yl)methanone]
≥ 5000 | Cn1cnc(-c2nc(C(F)F)c(C(=O)N3CCc4[nH]cnc4[C@@H]3c3nc4ccccc4o3)o2)c1 [Example 785, (R)-(4-(benzo[d]oxazol-2-yl)-6,7-dihydro-1H-imidazo[4,5-c]pyridin-5(4H)-yl)(4-(difluoromethyl)-2-(1-methyl-1H-imidazol-4-yl)oxazol-5-yl)methanone]
500 to 1000 | Cn1cnc(-c2nc(C(F)F)c(C(=O)N3CCc4[nH]cnc4[C@H]3c3nc4ccccc4o3)o2)c1 [Example 786, (S)-(4-(benzo[d]oxazol-2-yl)-6,7-dihydro-1H-imidazo[4,5-c]pyridin-5(4H)-yl)(4-(difluoromethyl)-2-(1-methyl-1H-imidazol-4-yl)oxazol-5-yl)methanone]
≤ 500 | Cn1ccc(-c2nc(C(F)(F)F)c(C(=O)N3CCc4[nH]cnc4[C@H]3c3nc4cc(F)ccc4o3)o2)n1 [Example 787, (S)-(4-(5-fluorobenzo[d]oxazol-2-yl)-6,7-dihydro-1H-imidazo[4,5-c]pyridin-5(4H)-yl)(2-(1-methyl-1H-pyrazol-3-yl)-4-(trifluoromethyl)oxazol-5-yl)methanone]

From patent US20250171437A1 (Agios Pharmaceuticals,Inc., priority 2022, published 2025)
